Experimental data published in US10077261B2, “Imidazolin-5-one derivative useful as FASN inhibitors for the treatment of cancer” (Janssen Pharmaceutica NV, priority 2012, dated 2018).
Each block holds one compound with its values, some of them ahead of it.

Columns and labels:
A2780 ovarian cells [1] = test: A2780 ovarian cell proliferation assay in lipid reduced medium, with palmitate (MTT); assay type: cell-based; conditions: Homo sapiens, A2780, 96 h; read-out: pIC50 A2780 Ovarian Cell, With Palmitate (converted)
In short: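 Seeded cells were switched next day to lipid-reduced serum, exposed to compound and 25 μM palmitate complexed with fatty-acid-free BSA, and incubated 96 h. Proliferation was then determined by MTT absorbance at 544 nm, with a best-fit curve of signal against concentration.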

[2] = test system: PC-3M-Luc-C6 prostate cells; test: In vitro PC-3M-Luc-C6 prostate cell proliferation assay in lipid reduced medium; assay type: cell-based; conditions: 96 h, read-out: pIC50 PC-3M-Luc-C6 prostate cell (converted)
Protocol: PC-3M-Luc-C6 prostate cells were obtained from Xenogen Corporation. Cells were maintained in MEM supplemented with 10% Fetal Calf Serum (FCS, Hyclone), 2 mM glutamine, 1 mM sodium pyruvate, 1% BME vitamins (available from for example, Sigma Aldrich), 0.1 mM non Essential Amino Acid and 50 μg/ml Gentamicin. The cells were passaged twice a week.
The next day 10 μl test compound/DMSO diluted in medium was added (3E-5M, 1E-5M, 3E-6M, 1E-6M, 3E-7M, 1E-7M, 3E-8M, 1E-8M final concentration). Compounds were tested in duplicate. After 96 h incubation at 37° C., 5% CO2 25 μl ATP-glow mix was added. The plate was incubated for 30 min at 37° C. and luminescence was measured with the Envision.
Analysis: Determination of pIC50 Values
pIC50 values were calculated as follows.
where mLC and mHC are the means of the low control wells and high control wells on the plate, after manual exclusion of outliers. The relation between the % Controlmin values and concentration was fitted to a 4-parameter logistic curve using a non-linear least squares regression method to determine the pIC50 value. Outlying data points were excluded manually to get a correct fit. The pIC50 corresponds to −log 10(IC50), if the IC50 is expressed in molar units (http://www.ncbi.nlm.nih.gov/books/NBK91994). The IC50 parameter was always determined by non-linear regression, but one or more of the other parameters may have been held fixed on a relevant input value, such as 0 for the bottom values.

A2780 ovarian cells [3] = test: A2780 ovarian cell proliferation assay in lipid reduced medium, without palmitate (MTT); assay type: cell-based; conditions: Homo sapiens, A2780, 96 h; read-out: pIC50 A2780 Ovarian Cell, Without Palmitate (converted)
[4] = test system: LNCaP-Vancouver prostate cells; test: In vitro LNCaP Vancouver prostate cell proliferation assay in lipid reduced medium; assay type: cell-based; conditions: read-out: pIC50 LNCaP_Vancouver prostate cell (converted)
[5] = target: T1, hFASN enzyme (full length) (Homo sapiens, UniProt P49327); test: Fatty Acid Synthase (FASN) inhibition scintillation proximity assay; assay type: biochemical; conditions: for inhibition at 10 µM: read-out: Human FASN % inhibition @ 10 μM, 10 μM test compound; for IC50: read-out: Human FASN pIC50 (converted)
T1 construct: 10 μL hFASN enzyme (full length, 300 ng, purified in house); made in house
In short: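 Full-length in-house purified enzyme (300 ng) was tested in 100 mM KH2PO4 pH 7.5, 1 mM DTT with ³H-acetyl-CoA and malonyl-CoA as substrates; compounds ranged 0.01–30 μM. Reactions were stopped with streptavidin imaging beads, read by LEADseeker at 610 nm, and fitted to a 4-parameter logistic curve.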

[6] = target: Fatty Acid Synthase Keto-reductase Domain (FASN KR) (Homo sapiens, UniProt P49327); test: Fatty Acid Synthase keto-reductase domain (FASN KR) inhibition, NADPH oxidation at 340 nm
Sequence of Fatty Acid Synthase Keto-reductase Domain (FASN KR) (P49327 whole entry, the tested form may be a part): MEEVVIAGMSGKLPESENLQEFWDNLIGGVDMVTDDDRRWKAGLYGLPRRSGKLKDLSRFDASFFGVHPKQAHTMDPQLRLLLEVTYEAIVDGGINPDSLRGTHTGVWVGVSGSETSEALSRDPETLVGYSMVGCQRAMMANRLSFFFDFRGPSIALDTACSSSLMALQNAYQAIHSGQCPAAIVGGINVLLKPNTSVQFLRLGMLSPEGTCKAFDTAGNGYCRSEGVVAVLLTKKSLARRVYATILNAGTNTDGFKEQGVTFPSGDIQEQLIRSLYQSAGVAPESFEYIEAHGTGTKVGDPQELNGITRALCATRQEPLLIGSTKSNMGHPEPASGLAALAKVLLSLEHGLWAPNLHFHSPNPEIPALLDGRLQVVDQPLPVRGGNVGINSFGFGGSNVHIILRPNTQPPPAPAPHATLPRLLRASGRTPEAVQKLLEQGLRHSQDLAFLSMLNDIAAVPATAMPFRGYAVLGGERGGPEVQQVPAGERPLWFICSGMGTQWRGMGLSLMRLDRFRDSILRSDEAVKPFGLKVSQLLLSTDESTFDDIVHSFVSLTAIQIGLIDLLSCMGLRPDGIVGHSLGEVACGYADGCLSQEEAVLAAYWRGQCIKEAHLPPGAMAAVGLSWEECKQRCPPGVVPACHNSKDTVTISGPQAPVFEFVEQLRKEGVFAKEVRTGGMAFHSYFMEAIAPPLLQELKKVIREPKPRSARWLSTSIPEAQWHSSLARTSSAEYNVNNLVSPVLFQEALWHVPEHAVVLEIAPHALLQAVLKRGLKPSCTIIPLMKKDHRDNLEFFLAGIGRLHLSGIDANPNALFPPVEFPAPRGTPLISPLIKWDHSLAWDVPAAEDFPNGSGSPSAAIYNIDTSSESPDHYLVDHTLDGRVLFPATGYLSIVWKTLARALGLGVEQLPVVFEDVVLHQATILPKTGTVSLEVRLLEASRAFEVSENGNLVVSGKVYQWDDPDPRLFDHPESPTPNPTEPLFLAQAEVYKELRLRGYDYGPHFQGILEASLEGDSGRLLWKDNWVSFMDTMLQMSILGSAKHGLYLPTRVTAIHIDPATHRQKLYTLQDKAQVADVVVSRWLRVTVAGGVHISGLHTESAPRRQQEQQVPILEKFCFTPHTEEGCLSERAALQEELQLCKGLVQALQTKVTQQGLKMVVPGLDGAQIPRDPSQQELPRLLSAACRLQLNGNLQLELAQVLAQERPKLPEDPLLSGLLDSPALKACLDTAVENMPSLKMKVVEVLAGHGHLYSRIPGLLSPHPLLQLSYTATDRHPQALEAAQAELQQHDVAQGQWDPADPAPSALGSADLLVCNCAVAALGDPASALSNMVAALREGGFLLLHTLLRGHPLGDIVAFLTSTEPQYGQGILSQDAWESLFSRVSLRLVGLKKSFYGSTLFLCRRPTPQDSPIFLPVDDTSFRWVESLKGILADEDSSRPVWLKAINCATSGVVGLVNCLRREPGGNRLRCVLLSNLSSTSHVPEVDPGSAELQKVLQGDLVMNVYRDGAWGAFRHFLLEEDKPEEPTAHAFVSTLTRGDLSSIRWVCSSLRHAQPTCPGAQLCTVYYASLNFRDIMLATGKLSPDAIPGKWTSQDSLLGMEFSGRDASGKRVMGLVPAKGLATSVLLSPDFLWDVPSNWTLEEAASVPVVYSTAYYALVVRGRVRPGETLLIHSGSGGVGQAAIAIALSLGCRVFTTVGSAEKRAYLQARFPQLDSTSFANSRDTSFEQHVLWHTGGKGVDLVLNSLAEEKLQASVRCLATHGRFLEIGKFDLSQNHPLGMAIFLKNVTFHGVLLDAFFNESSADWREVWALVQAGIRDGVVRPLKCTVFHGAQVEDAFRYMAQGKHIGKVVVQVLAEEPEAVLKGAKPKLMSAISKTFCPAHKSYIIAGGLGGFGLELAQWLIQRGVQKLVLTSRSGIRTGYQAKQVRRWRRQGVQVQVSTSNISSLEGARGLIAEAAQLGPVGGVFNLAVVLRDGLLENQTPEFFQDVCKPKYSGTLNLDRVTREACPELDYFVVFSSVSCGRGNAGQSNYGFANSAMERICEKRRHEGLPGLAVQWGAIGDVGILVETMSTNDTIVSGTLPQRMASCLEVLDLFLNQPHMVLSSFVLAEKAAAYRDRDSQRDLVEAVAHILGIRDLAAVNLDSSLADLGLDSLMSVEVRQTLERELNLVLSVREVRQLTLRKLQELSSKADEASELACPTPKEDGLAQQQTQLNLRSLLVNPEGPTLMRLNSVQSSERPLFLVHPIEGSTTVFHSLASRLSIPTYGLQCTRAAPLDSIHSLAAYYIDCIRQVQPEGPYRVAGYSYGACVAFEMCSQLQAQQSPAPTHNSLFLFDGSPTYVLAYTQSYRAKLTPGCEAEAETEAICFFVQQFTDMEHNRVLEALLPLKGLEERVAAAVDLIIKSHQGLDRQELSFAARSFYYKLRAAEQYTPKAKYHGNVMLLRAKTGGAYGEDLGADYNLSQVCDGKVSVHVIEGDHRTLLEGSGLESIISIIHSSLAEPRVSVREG
Protocol: After 20 minutes incubation at room temperature the plate was measured again (T2).
The decrease in absorbance was calculated as (Absorbance before incubation T1)−(Absorbance following incubation T2).
A plot of Controlmin versus test compound concentration was fitted to a 4-parameter logistic curve using a non-linear least squares regression method.

T1 sequence (P49327 whole entry): as the sequence (P49327 whole entry, the tested form may be a part) above

SMILES: O=C(C1CC1)N1CC[C@@H](CN2C(=O)C3(CC3)N=C2c2ccc(-c3nc4ccccc4s3)cc2F)C1 [compound 252, (R)-5-(4-(benzo[d]thiazol-2-yl)-2-fluorophenyl)-6-((1-(cyclopropanecarbonyl)pyrrolidin-3-yl)methyl)-4,6-diazaspiro[2.4]hept-4-en-7-one]
IC50 (A2780 ovarian cells [1]): > 10 µM
IC50 [2]: 0.0562 µM
IC50 (A2780 ovarian cells [3]): ~0.0776 µM
IC50 [4]: 0.251 µM

SMILES: Cc1cc(C2=NC3(CC3)C(=O)N2C[C@@H]2CCN(C(=O)C3CC3)C2)ccc1-c1ccc2c(cnn2C)c1 [compound 450, 6-{[(3R)-1-(Cyclopropylcarbonyl)pyrrolidin-3-yl]methyl}-5-[3-methyl-4-(1-methyl-1H-indazol-5-yl)phenyl]-4,6-diazaspiro[2.4]hept-4-en-7-one]
IC50 (A2780 ovarian cells [1]): > 10 µM
IC50 [2]: 0.794 µM
IC50 (A2780 ovarian cells [3]): ~0.617 µM
IC50 [4]: 2.34 µM

SMILES: Cc1cc(-c2ccc3c(cnn3C)c2)ccc1C1=NC2(CC2)C(=O)N1C[C@@H]1CCN(C(=O)C2CC2)C1 [compound 262, (R)-6-((1-(cyclopropanecarbonyl)pyrrolidin-3-yl)methyl)-5-(2-methyl-4-(1-methyl-1H-indazol-5-yl)phenyl)-4,6-diazaspiro[2.4]hept-4-en-7-one]
IC50 (A2780 ovarian cells [1]): 6.03 µM
IC50 [2]: ~0.117 µM
IC50 (A2780 ovarian cells [3]): 0.0776 µM
IC50 [4]: 0.295 µM

SMILES: Cc1cc(-c2ccc3c(c2)c(CO)nn3C)ccc1C1=NC2(CC2)C(=O)N1CC1CN(C(=O)C2CC2)C1 [compound 586, 6-{[1-(Cyclopropylcarbonyl)azetidin-3-yl]methyl}-5-{4-[3-(hydroxymethyl)-1-methyl-1H-indazol-5-yl]-2-methylphenyl}-4,6-diazaspiro[2.4]hept-4-en-7-one]
IC50 (A2780 ovarian cells [1]): > 10 µM
IC50 [2]: 1.02 µM
inhibition at 10 µM [5]: 93%
IC50 [5]: 0.525 µM
IC50 (A2780 ovarian cells [3]): ~0.851 µM
IC50 [6]: 1.66 µM

SMILES: Cn1cnc2cc(-c3ccc(C4=NC5(CC5)C(=O)N4CC4CN(C(=O)C5CC5)C4)cc3)ccc21 [compound 343, 6-((1-(cyclopropanecarbonyl)azetidin-3-yl)mehtyl)-5-(4-(1-methyl-1H-benzo[d]imidazol-5-yl)phenyl)-4,6-diazaspiro[2.4]hept-4-en-7-one]
IC50 [2]: 0.0813 µM
inhibition at 10 µM [5]: 98%
IC50 [4]: 0.24 µM

SMILES: Cc1cc(-c2ccc3cc(OC(C)C)ccc3c2)ccc1C1=NC2(CC2)C(=O)N1CC1CN(C(=O)C2(C)CC2)C1 [compound 581, 6-({1-[(1-Methylcyclopropyl)carbonyl]azetidin-3-yl}methyl)-5-{2-methyl-4-[6-(1-methylethoxy)naphthalen-2-yl]phenyl}-4,6-diazaspiro[2.4]hept-4-en-7-one]
IC50 (A2780 ovarian cells [1]): 4.27 µM
IC50 [2]: ~0.295 µM
inhibition at 10 µM [5]: 93%
IC50 [5]: 0.316 µM
IC50 (A2780 ovarian cells [3]): ~0.2 µM
IC50 [6]: 0.631 µM

SMILES: COCCN1CCC2(CC1)N=C(c1ccc(-c3ccc4occc4c3)cc1)N(C[C@@H]1CCN(C(=O)C3CC3)C1)C2=O [compound 749, 2-[4-(1-Benzofurann-5-yl)phenyl]-3-{[(3R)-1-(cyclopropylcarbonyl)pyrrolidin-3-yl]methyl}-8-(2-methoxyethyl)-1,3,8-triazaspiro[4.5]dec-1-en-4-one]
IC50 (A2780 ovarian cells [1]): > 10 µM
IC50 [2]: 0.759 µM
inhibition at 10 µM [5]: 97%
IC50 [5]: 0.138 µM
IC50 (A2780 ovarian cells [3]): 1.55 µM
IC50 [6]: 0.603 µM

SMILES: COC(=O)N1CC2(C1)N=C(c1ccc(-c3ccc4c(cnn4C)c3)cc1)N(C[C@@H]1CCN(C(=O)C3CC3)C1)C2=O [compound 737, Methyl 7-{[(3R)-1-(cyclopropylcarbonyl)pyrrolidin-3-yl]methyl}-6-[4-(1-methyl-1H-indazol-5-yl)phenyl]-8-oxo-2,5,7-triazaspiro[3.4]oct-5-ene-2-carboxylate]
IC50 [2]: 0.708 µM
IC50 [4]: ~3.72 µM

SMILES: Cc1cc(-c2ccc3cc(C)c(Cl)nc3c2)ccc1C1=NC2(CC2)C(=O)N1CC1CN(C(=O)C2(C)CC2)C1 [compound 596]
IC50 (A2780 ovarian cells [1]): 6.31 µM
IC50 [2]: ~0.759 µM
inhibition at 10 µM [5]: 102%
IC50 [5]: 0.186 µM
IC50 (A2780 ovarian cells [3]): 0.457 µM
IC50 [6]: 0.589 µM

SMILES: Cc1cc(-c2ccc3c(cnn3C)c2)ccc1C1=NC2(CC2)C(=O)N1CC1CN(C(=O)C(C)(C)CO)C1 [compound 546, 6-{[1-(3-Hydroxy-2,2-dimethylpropanoyl)azetidin-3-yl]methyl}-5-[2-methyl-4-(1-methyl-1H-indazol-5-yl)phenyl]-4,6-diazaspiro[2.4]hept-4-en-7-one]
IC50 (A2780 ovarian cells [1]): > 10 µM
IC50 [2]: ~0.309 µM
inhibition at 10 µM [5]: 100%
IC50 [5]: 0.204 µM
IC50 (A2780 ovarian cells [3]): ~0.195 µM
IC50 [6]: 0.603 µM

SMILES: O=C(C1CC1)N1CC[C@@H](CN2C(=O)C3(CCCC3)N=C2c2ccc(-c3ccc4occc4c3)cc2)C1 [compound 2, 2-[4-(1-Benzofuran-5-yl)phenyl]-3-{[(3R)-1-(cyclopropylcarbonyl)pyrrolidin-3-yl]methyl-}3-diazaspiro[4.4]non-1-en-4-one]
IC50 (A2780 ovarian cells [1]): > 10 µM
IC50 [2]: ~0.661 µM
inhibition at 10 µM [5]: 109%
IC50 [5]: 0.0457 µM
IC50 (A2780 ovarian cells [3]): 0.977 µM
IC50 [6]: 0.0891 µM

Further lines, results first:

IC50 (A2780 ovarian cells [1]): > 10 µM
IC50 [2]: 0.00741 µM
IC50 (A2780 ovarian cells [3]): 0.00617 µM
IC50 [4]: 0.0316 µM
SMILES: O=C(C1CC1)N1CC[C@@H](CN2C(=O)C3(CC3)N=C2c2ccc(-c3ccc4cccnc4c3)cc2)C1 [compound 309, (R)-6-((1-(cyclopropanecarbonyl)pyrrolidin-3-yl)methyl)-5-(4-(quinolin-7-yl)phenyl)-4,6-diazaspiro[2.4]hept-4-en-7-one]

IC50 [2]: 0.562 µM
inhibition at 10 µM [5]: 99%
IC50 [4]: 1.2 µM
SMILES: O=C(C1CC1)N1CC(CN2C(=O)C3(CC3)N=C2c2ccc(-c3ccc4ccccc4n3)cc2)C1 [compound 345, 6-((1-(cyclopropanecarbonyl)azetidin-3-yl)methyl)-5-(4-(quinolin-2-yl)phenyl)-4,6-diazaspiro[2.4]hept-4-en-7-one]

IC50 (A2780 ovarian cells [1]): > 10 µM
IC50 [2]: 0.708 µM
IC50 (A2780 ovarian cells [3]): 0.2 µM
IC50 [4]: 1 µM
SMILES: O=C(C1CC1)N1CC[C@@H](CN2C(=O)C3(CC3)N=C2c2ccc(-c3cnc4ccccc4c3)cc2)C1 [compound 474, 6-{[(3R)-1-(Cyclopropylcarbonyl)pyrrolidin-3-yl]methyl}-5-(4-quinolin-3-ylphenyl)-4,6-diazaspiro[2.4]hept-4-en-7-one]

IC50 (A2780 ovarian cells [1]): > 10 µM
IC50 [2]: 0.151 µM
IC50 (A2780 ovarian cells [3]): 0.331 µM
IC50 [4]: 1.05 µM
SMILES: Cn1ncc2cc(-c3ccc(C4=NC5(CC5)C(=O)N4CC4CN(C(=O)C5CC5)C4)cc3)ccc21 [compound 39, 6-{[1-(Cyclopropylcarbonyl)azetidin-3-yl]methyl}-5-[4-(1-methyl-1H-indazol-5-yl)phenyl]-4,6-diazaspiro[2.4]hept-4-en-7-one]

IC50 [2]: 0.479 µM
IC50 [4]: 5.37 µM
SMILES: O=C(C1CC1)N1CC[C@@H](CN2C(=O)C3(CC3)N=C2c2ccc(-c3nc4ccccc4[nH]3)cc2)C1 [compound 497, 5-[4-(1H-Benzimidazol-2-yl)phenyl]-6-{[(3R)-1-(cyclopropylcarbonyl)pyrrolidin-3-yl]methyl}-4,6-diazaspiro[2.4]hept-4-en-7-one]

IC50 [2]: 0.0575 µM
IC50 [4]: 0.309 µM
SMILES: O=C(C1CC1)N1CC[C@@H](CN2C(=O)C3(CC3)N=C2c2ccc(-c3c[nH]c4ccccc34)cc2)C1 [compound 314, (R)-5-(4-(1H-indol-3-yl)phenyl)-6-((1-(cyclopropanecarbonyl)pyrrolidin-3-yl)methyl)-4,6-diazaspiro[2.4]hept-4-en-7-one]
